target: T1, sodium-proton exchanger of subtype 3 (NHE3) (Homo sapiens, UniProt P48764); experiment: Recovery of intracellular pH (pHi) after acidification in LAP1 cells stably expressing NHE3 (BCECF fluorescence, FLIPR); assay type: cell-based; conditions: LAP1 cells stably expressing NHE3; pH recovery after acidification; range 1 is % inhibition at 10 μM; read-out: Activity range (inhibitory effect on NHE3)
T1 construct: expressed in transfected cells
T1 sequence (P48764 26-834): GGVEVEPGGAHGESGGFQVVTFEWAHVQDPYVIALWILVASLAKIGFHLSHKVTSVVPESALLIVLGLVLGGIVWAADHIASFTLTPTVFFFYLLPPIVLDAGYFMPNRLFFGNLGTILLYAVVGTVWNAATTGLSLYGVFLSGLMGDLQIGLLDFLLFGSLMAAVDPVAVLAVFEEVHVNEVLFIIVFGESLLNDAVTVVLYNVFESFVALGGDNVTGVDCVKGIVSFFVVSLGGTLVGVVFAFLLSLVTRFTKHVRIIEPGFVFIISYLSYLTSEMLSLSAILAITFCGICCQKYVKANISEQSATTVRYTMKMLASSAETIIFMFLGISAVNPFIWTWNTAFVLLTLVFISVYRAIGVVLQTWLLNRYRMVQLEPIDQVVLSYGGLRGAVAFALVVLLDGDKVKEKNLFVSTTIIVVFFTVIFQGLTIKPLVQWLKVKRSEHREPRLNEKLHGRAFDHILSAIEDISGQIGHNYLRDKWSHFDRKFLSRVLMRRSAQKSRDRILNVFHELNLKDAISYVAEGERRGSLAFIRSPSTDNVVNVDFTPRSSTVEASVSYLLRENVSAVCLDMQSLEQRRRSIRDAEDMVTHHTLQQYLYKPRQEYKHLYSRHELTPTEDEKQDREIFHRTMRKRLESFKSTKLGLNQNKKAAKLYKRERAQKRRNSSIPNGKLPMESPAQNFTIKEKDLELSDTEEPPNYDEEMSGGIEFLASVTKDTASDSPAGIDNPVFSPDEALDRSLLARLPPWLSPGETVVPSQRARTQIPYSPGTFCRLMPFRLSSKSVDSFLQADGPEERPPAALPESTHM

Compound	IC50 [nM]	inhibition at 10 µM [%]
NS(=O)(=O)c1ccc(O[C@H]2c3ccccc3C[C@@H]2CN2CCCC2)c(F)c1 (racemic) [Example 452, 3-fluoro-4-(2-pyrrolidin-1-ylmethylindan-1-yloxy)benzenesulfonamide]	1000 to 10000	–
CCc1nc(C)cn1-c1ccc(F)c(O[C@H]2c3cc(Cl)cc(Cl)c3C[C@@H]2N2CC[C@@H](O)C2)c1 [Example 725, (R)-1-{trans-(1S,2S)-4,6-Dichloro-1-[5-(2-ethyl-4-methyl-imidazol-1-yl)-2-fluoro-phenoxy]-indan-2-yl}-pyrrolidin-3-ol]	1000 to 10000	–
N#Cc1ccc(O[C@@H]2c3ccccc3C[C@H]2N2CCC(CN)C2)cc1Cl (mixture of isomers) [Example 540, 4-[rac-trans-(1,2)-2-(3-aminomethylpyrrolidin-1-yl)indan-1-yloxy]-2-chlorobenzonitrile]	1000 to 10000	–
CN1CCN(C(=O)c2ccc(O[C@H]3c4ccccc4C[C@@H]3N3CCCC3)cc2)CC1 (racemic) [Example 22, (4-methylpiperazin-1-yl)-[4-(rac-trans-(1,2)-2-pyrrolidin-1-ylindan-1-yloxy)phenyl]methanone]	1000 to 10000	–
Cc1nnc(C)n1-c1ccc(O[C@H]2c3cc(Cl)cc(Cl)c3C[C@@H]2N2CCCN(C)CC2)c(Cl)c1 [Example 345, 1-{trans-(1S,2S)-4,6-dichloro-1-[2-chloro-4-(3,5-dimethyl-[1,2,4]triazol-4-yl)phenoxy]indan-2-yl}-4-methyl-[1,4]diazepane]	< 1000	–
CCc1ccc(O[C@@H]2c3ccccc3C[C@H]2N2CCC(CN)CC2)c(C(C)(C)C)c1 (racemic) [Example 609, C-{1-[rac-trans-(1,2)-1-(2-tert-butyl-4-ethylphenoxy)indan-2-yl]piperidin-4-yl}methylamine]	1000 to 10000	–
CS(=O)(=O)c1ccc(O[C@H]2c3cc(Cl)cc(Cl)c3C[C@@H]2N2CC[C@@H](CO)C2)cc1 [Example 227, {(R)-1-[trans-(1S,2S)-4,6-dichloro-1-(4-methanesulfonylphenoxy)indan-2-yl]pyrrolidin-3-yl}methanol]	1000 to 10000	–
Cc1nc2cc(O[C@@H]3c4ccccc4C[C@H]3N3C[C@H]4CNC[C@H]4C3)ccc2s1 (racemic) [Example 576, 5-[rac-trans-(1,2)-2-(hexahydropyrrolo[3,4-c]pyrrol-2-yl)indan-1-yloxy]-2-methylbenzothiazole]	1000 to 10000	–
Cc1nc2cc(O[C@@H]3c4ccccc4C[C@H]3N3CCC[C@@H](N)C3)ccc2s1 (racemic) [Example 47, (R)-1-[rac-trans-(1,2)-1-(2-methylbenzothiazol-5-yloxy)indan-2-yl]piperidin-3-ylamine]	< 1000	–
N[C@@H]1CCCN([C@H]2Cc3ccccc3[C@@H]2Oc2ccc(S(N)(=O)=O)cc2)C1 [Example 552, 4-[trans-(1S,2S)-2-((R)-3-aminopiperidin-1-yl)indan-1-yloxy]benzenesulfonamide]	< 1000	–
CSc1ccc(O[C@H]2c3ccccc3CC[C@@H]2N2CCC[C@@H](N)C2)cc1 (racemic) [Example 74, (R)-1-[rac-trans-(1,2)-1-(4-methylsulfanylphenoxy)-1,2,3,4-tetrahydronaphthalen-2-yl]piperidin-3-ylamine]	–	20 to 50
Cn1ccn(-c2ccc(F)c(O[C@H]3c4cc(Cl)cc(F)c4C[C@@H]3N3CC[C@@H](O)C3)c2)c1=O [Example 318, 1-{3-[(1S,2S)-6-chloro-4-fluoro-2-((R)-3-hydroxypyrrolidin-1-yl)indan-1-yloxy]-4-fluorophenyl}-3-methyl-1,3-dihydroimidazol-2-one]	< 1000	–
N[C@@H]1CCCN([C@H]2CCc3ccccc3[C@@H]2Oc2ccc(F)c(C(F)(F)F)c2)C1 (racemic) [Example 69, (R)-1-[rac-trans-(1,2)-1-(4-fluoro-3-trifluoromethylphenoxy)-1,2,3,4-tetrahydronaphthalen-2-yl]piperidin-3-ylamine]	–	20 to 50
NS(=O)(=O)c1ccc(O[C@H]2c3ccccc3C[C@@H]2N2CCCC2)c(Cl)c1 (racemic) [Example 444, 3-chloro-4-(rac-trans-(1,2)-2-pyrrolidin-1-ylindan-1-yloxy)benzenesulfonamide]	< 1000	–
CS(=O)(=O)c1ccccc1O[C@H]1c2cc(Cl)cc(Cl)c2C[C@@H]1N1CCNCC1 [Example 246, 1-[(1S,2S)-4,6-dichloro-1-(2-methanesulfonylphenoxy)indan-2-yl]piperazine]	1000 to 10000	–
CC(=O)Nc1cccc(O[C@H]2c3cc(Cl)cc(F)c3C[C@@H]2N2CCNCC2)c1 (racemic) [Example 659, N-[3-(rac-trans-(1,2)-6-chloro-4-fluoro-2-piperazin-1-ylindan-1-yloxy)phenyl]acetamide]	< 1000	–
CC(=O)Nc1cccc(O[C@H]2c3cc(Cl)cc(Cl)c3C[C@@H]2N2CCC[C@@H](N)C2)c1 [Example 690, N-{3-[trans-(1S,2S)-2-((R)-3-aminopiperidin-1-yl)-4,6-dichloroindan-1-yloxy]phenyl}acetamide]	< 1000	–
CS(=O)(=O)c1ccc(O[C@H]2c3c(ccc(Cl)c3Cl)C[C@@H]2N2CCCNCC2)cc1 (racemic) [Example 288, 1-[rac-trans-(1,2)-6,7-dichloro-1-(4-methanesulfonylphenoxy)indan-2-yl]-[1,4]diazepane]	< 1000	–
NC(=O)c1ccc(O[C@@H]2c3ccccc3C[C@H]2N2CCC[C@@H](N)C2)cc1 (racemic) [Example 524, 4-[rac-trans-(1,2)-2-((R)-3-aminopiperidin-1-yl)indan-1-yloxy]benzamide]	< 1000	–
CO[C@@H]1CCN(C2Cc3ccccc3C2Oc2ccc(S(N)(=O)=O)c(Cl)c2Cl)C1 (mixture of isomers) [Example 359, 2,3-dichloro-4-[rac-trans-(1,2)-2-((R)-3-methoxypyrrolidin-1-yl)indan-1-yloxy]benzenesulfonamide]	1000 to 10000	–
CCN(CC)[C@@H]1Cc2ccccc2[C@H]1Oc1ccc2c(c1)C(C)C(=O)N2C (mixture of isomers) [Example 568, 5-(rac-trans-(1,2)-2-diethylaminoindan-1-yloxy)-1,3-dimethyl-1,3-dihydroindol-2-one]	1000 to 10000	–
NC(=O)c1cccc(O[C@@H]2c3ccccc3C[C@H]2N2CCC[C@H](N)C2)c1 (racemic) [Example 413, 3-[rac-trans-(1,2)-2-((S)-3-aminopiperidin-1-yl)indan-1-yloxy]benzamide]	1000 to 10000	–
N[C@@H]1CCCN([C@H]2CCc3ccccc3[C@@H]2Oc2cccc(Cl)c2)C1 (racemic) [Example 55, (R)-1-[rac-trans-(1,2)-1-(3-chlorophenoxy)-1,2,3,4-tetrahydronaphthalen-2-yl]piperidin-3-ylamine]	–	20 to 50
CCOC(=O)c1ncoc1-c1ccc(O[C@H]2c3ccccc3CC[C@@H]2N2CCC[C@@H](N)C2)cc1 (racemic) [Example 583, 5-{4-[rac-trans-(1,2)-2-((R)-3-aminopiperidin-1-yl)-1,2,3,4-tetrahydronaphthalen-1-yloxy]phenyl}oxazole-4-carboxylic acid ethyl ester]	1000 to 10000	–
Cc1cc(O[C@H]2c3cc(Cl)cc(F)c3C[C@@H]2N2CCNCC2)ccc1S(=O)(=O)C(F)(F)F (racemic) [Example 290, 1-[rac-trans-(1,2)-6-chloro-4-fluoro-1-(3-methyl-4-trifluoromethanesulfonylphenoxy)indan-2-yl]piperazine]	–	20 to 50

Reference: patent US8822449B2, “Substituted aminoindanes and analogs thereof, and the pharmaceutical use thereof” (Sanofi, priority 2008, dated 2014)
